Data from patent US7449470B2, “Substituted pyrimidines as ligands of adenosine receptors” (Universiteit Leiden, priority 2003, dated 2008).

The molecules below were run against T1, human adenosine A1 receptor (Homo sapiens, UniProt P30542) (assay: Radioligand binding assay, displacement of [3H]DPCPX). Conditions: CHO cells expressing human adenosine A1 receptors; Ki ± SEM (n = 3); read-out: A1 Ki (displacement of specific [3H]DPCPX binding).
T1 construct: expressed in transfected cells; host or cells: CHO cells
T1 sequence (P30542 1-326): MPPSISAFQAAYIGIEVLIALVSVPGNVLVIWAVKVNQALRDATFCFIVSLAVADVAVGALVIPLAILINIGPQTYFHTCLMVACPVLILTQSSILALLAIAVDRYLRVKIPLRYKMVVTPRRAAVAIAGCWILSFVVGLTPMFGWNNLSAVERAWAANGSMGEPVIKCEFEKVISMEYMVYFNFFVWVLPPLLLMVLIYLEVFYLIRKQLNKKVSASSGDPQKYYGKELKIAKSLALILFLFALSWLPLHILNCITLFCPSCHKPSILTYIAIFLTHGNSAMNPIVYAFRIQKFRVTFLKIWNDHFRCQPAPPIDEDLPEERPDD
Method: Radioligand Binding Studies [^3H]DPCPX was purchased from Amersham. All compounds made were tested in radioligand binding assays to determine their affinities at the human adenosine A1 receptor. The affinities at the A1 receptors were determined on CHO cells expressing the human receptors, using [^3H]DPCPX as the radioligand according to a previously described method.^9
Data Analysis Competition binding data were fit to a single-site binding model and plotted using the software package Prism (Graph Pad, San Diego, Calif., USA). The Cheng-Prusoff equation Ki=IC50/(1+[I]/Kd) was used to calculate Ki values, where Ki is the affinity constant for the competing ligand, [I] is the concentration of the free radioligand, and Kd is the affinity constant for the radioligand.

| SMILES | Ki [nM] |
| --- | --- |
| O=C(Nc1cc(-c2ccccc2)nc(-c2ccccc2)n1)c1ccccc1 [Compound 13, N-(2,6-Diphenyl-pyrimidin-4-yl)-benzamide] | 671 ± 113 |
| CC(=O)Nc1cc(-c2ccccc2)nc(-c2ccccc2)n1 [Compound 14, N-(2,6-Diphenyl-pyrimidin-4-yl)-acetamide] | 37.5 ± 8.1 |
| CCC(=O)Nc1cc(-c2ccccc2)nc(-c2ccccc2)n1 [Compound 15, N-(2,6-Diphenyl-pyrimidin-4-yl)-propionamide] | 9.5 ± 4.6 |
| CCCC(=O)Nc1cc(-c2ccccc2)nc(-c2ccccc2)n1 [Compound 16, N-(2,6-Diphenyl-pyrimidin-4-yl)-butyramide] | 17.6 ± 5.3 |
| CC(C)CC(=O)Nc1cc(-c2ccccc2)nc(-c2ccccc2)n1 [Compound 18, N-(2,6-Diphenyl-pyrimidin-4-yl)-3-methyl-butyramide] | 14.8 ± 2.7 |
| CCC(CC)C(=O)Nc1cc(-c2ccccc2)nc(-c2ccccc2)n1 [Compound 19, N-(2,6-Diphenyl-pyrimidin-4-yl)-2-ethyl-butyramide] | 6.35 ± 0.4 |
| CCC(C)C(=O)Nc1cc(-c2ccccc2)nc(-c2ccccc2)n1 (stereo not drawn) [Compound 20, N-(2,6-Diphenyl-pyrimidin-4-yl)-2-methyl-butyramide] | 2.22 ± 1.1 |
| CC(C)(C)C(=O)Nc1cc(-c2ccccc2)nc(-c2ccccc2)n1 [Compound 21, N-(2,6-Diphenyl-pyrimidin-4-yl)-2,2-dimethyl-propionamide] | 27.7 ± 6.2 |
| CC(C)(C)CC(=O)Nc1cc(-c2ccccc2)nc(-c2ccccc2)n1 [Compound 22, N-(2,6-Diphenyl-pyrimidin-4-yl)-3,3-dimethyl-butyramide] | 8.75 ± 4.1 |
| O=C(Nc1cc(-c2ccccc2)nc(-c2ccccc2)n1)C1CCC1 [Compound 23, Cyclobutanecarboxylic acid (2,6-diphenyl-pyrimidin-4-yl)-amide] | 6.49 ± 2.2 |
| O=C(Nc1cc(-c2ccccc2)nc(-c2ccccc2)n1)C1CCCC1 [Compound 24, Cyclopentanecarboxylic acid (2,6-diphenyl-pyrimidin-4-yl)-amide] | 2.14 ± 0.07 |
| O=C(Nc1cc(-c2ccccc2)nc(-c2ccccc2)n1)C1CCCCC1 [Compound 25, Cyclohexanecarboxylic acid (2,6-diphenyl-pyrimidin-4-yl)-amide] | 15.5 ± 8.4 |
